Read-outs that look alike come from different tables or passages of the source.
How the values were obtained:
Rat OPCs = details: ● = hit reported; cited from earlier work
[1] = tested on: acutely dissociated and purified rat OPCs; assay: Acute OL differentiation assay (MBP expression/cell, immunofluorescent image quantification); format: cell-based; details: for activation at 0.08 µM: test compound at 0.08 uM, read-out: 0.08 uM (% Quet); for activation at 0.08 µM / activation at 0.4 µM / activation at 2 µM / activation at 10 µM / 2 uM (% Quet) / 10 uM (% Quet): sheet "All OLga data"; for hit in OL differentiation assay, MRF-TMC: ● = confirmed hit in this paper's assay
Summary of the method: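 This acute differentiation assay used purified rat OPCs from postnatal day 6–7 pups, seeded into PDL/laminin-coated 96-well plates in differentiation medium lacking PDGF and FGF. Compounds were applied in quadruplicate after a 1–2 h preincubation at 37 °C, 10 % CO2, with 0.1 % DMSO negative and 40 ng/ml T3 positive controls in eight wells. After fixation on DIV4, anti-MBP immunofluorescence images yielded MBP expression/cell.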

expanded OPCs = assay: cells; details: for viability at 0.1 µM / viability at 1 µM / viability at 10 µM: Rattus norvegicus, 72 h
Summary of the method: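 Toxicity screen: compounds added at 0.1, 1 and 10 µM to PDGF-AA-expanded OPCs in 96-well plates, 3-day incubation at 37 °C, 10% CO2, then alamarBlue 1:10 for 4 h with fluorescence readout. Results set screening doses of 10/2, 2/0.4 or 0.4/0.08 µM.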

[2] = Rattus norvegicus, NCC library screen, relative to quetiapine
[3] = Rattus norvegicus, test compound at 0.4 uM, NCC library screen, relative to quetiapine, read-out: 0.4 uM (% Quet)
[4] = read-out: 0.1 µM (% DMSO), alamarBlue viability, NCC library compound at 0.1 µM, sheet "All Tox data"
[5] = read-out: 1 µM (% DMSO), alamarBlue viability, NCC library compound at 1 µM, sheet "All Tox data"
[6] = read-out: 10 µM (% DMSO), alamarBlue viability, NCC library compound at 10 µM, sheet "All Tox data"
[7] = alamarBlue viability of expanded OPCs, compound at 0.1 µM, relative to DMSO control
[8] = alamarBlue viability of expanded OPCs, compound at 1 µM, relative to DMSO control
[9] = alamarBlue viability of expanded OPCs, compound at 10 µM, relative to DMSO control
[10] = Rattus norvegicus, test compound at 2 uM, NCC library screen, relative to quetiapine, read-out: 2 uM (% Quet)
[11] = Rattus norvegicus, test compound at 10 uM, NCC library screen, relative to quetiapine, read-out: 10 uM (% Quet)
[12] = Rattus norvegicus, 2 uM test compound, relative to quetiapine, read-out: OL differentiation, 2 uM (% Quet)
[13] = Rattus norvegicus, 10 uM test compound, relative to quetiapine, read-out: OL differentiation, 10 uM (% Quet)
[14] = read-out: 0.1 µM (% DMSO), alamarBlue viability of expanded OPCs, compound at 0.1 µM, sheet All Tox data
[15] = read-out: 1 µM (% DMSO), alamarBlue viability of expanded OPCs, compound at 1 µM, sheet All Tox data
[16] = read-out: 10 µM (% DMSO), alamarBlue viability of expanded OPCs, compound at 10 µM, sheet All Tox data
[17] = Rattus norvegicus, 0.4 uM test compound, relative to quetiapine, read-out: OL differentiation, 0.4 uM (% Quet)
[18] = Rattus norvegicus, test compound at 2 uM, MBP expression relative to quetiapine, NCC library screen, read-out: 2 uM (% Quet)
[19] = Rattus norvegicus, test compound at 10 uM, MBP expression relative to quetiapine, NCC library screen, read-out: 10 uM (% Quet)
[20] = test compound at 2 uM, NCC library screen, relative to quetiapine
[21] = test compound at 10 uM, NCC library screen, relative to quetiapine
[22] = alamarBlue viability, NCC library compound at 0.1 µM, sheet "All Tox data"
[23] = alamarBlue viability, NCC library compound at 1 µM, sheet "All Tox data"
[24] = alamarBlue viability, NCC library compound at 10 µM, sheet "All Tox data"

Compound | viability at 0.1 µM (expanded OPCs; [4]) [%] | viability at 1 µM (expanded OPCs; [5]) [%] | viability at 10 µM (expanded OPCs; [6]) [%] | activation at 2 µM [1, 12] [%] | activation at 10 µM [1, 13] [%] | viability at 0.1 µM (expanded OPCs; [14]) [%] | viability at 1 µM (expanded OPCs; [15]) [%] | viability at 10 µM (expanded OPCs; [16]) [%] | also measured
OCCN1CCN(CCCN2c3ccccc3Sc3ccc(C(F)(F)F)cc32)CC1 [Fluphenazine, reference compound] | 159 | 46.8 | 9.6 |  |  |  |  |  | hit in OL differentiation assay, Deshmukh (Rat OPCs): ●; activation at 0.08 µM [1, 2]: 92.6%; activation at 0.4 µM [1, 3]: -2.7%; hit in OL differentiation assay, MRF-TMC [1]: ●
OCCN1CCN(CCCN2c3ccccc3Sc3ccc(Cl)cc32)CC1 [Perphenazine, reference compound] |  |  |  |  |  |  |  |  | hit in OL differentiation assay, Deshmukh (Rat OPCs): ●; activation at 0.08 µM [1, 2]: 95.7%; activation at 0.4 µM [1, 3]: 79%; EC50 ([1]; Rattus norvegicus, average EC50 for induction of OL differentiation from independent biological replicates, eight concentrations): 0.1 µM; hit in OL differentiation assay, MRF-TMC [1]: ●; 0.1 µM (% DMSO) (expanded OPCs; [7]): 154.3 % DMSO; 1 µM (% DMSO) (expanded OPCs; [8]): 47.1 % DMSO; 10 µM (% DMSO) (expanded OPCs; [9]): 9.2 % DMSO
CC(=O)CC(c1ccccc1)c1c(O)c2ccccc2oc1=O (centres unmarked) [Warfarin] |  |  |  |  |  |  |  |  | activation at 2 µM [1, 10]: -4.3%; activation at 10 µM [1, 11]: -2%; 0.1 µM (% DMSO) (expanded OPCs; [7]): 92.9 % DMSO; 1 µM (% DMSO) (expanded OPCs; [8]): 93.8 % DMSO; 10 µM (% DMSO) (expanded OPCs; [9]): 96.2 % DMSO
COc1cc(N)c(Cl)cc1C(=O)NC1CN2CCC1CC2 (centres unmarked) [Zacopride] |  |  |  | 6.8 | 13 | 87 | 88.6 | 91.9 | 
COc1cc(C(=O)NS(=O)(=O)c2ccccc2C)ccc1Cc1cn(C)c2ccc(NC(=O)OC3CCCC3)cc12 [Zafirlukast] | 94.9 | 78.7 | 41.9 | -96.7 |  |  |  |  | activation at 0.4 µM [1, 17]: -24.7%
Nc1ccn([C@H]2CC[C@@H](CO)O2)c(=O)n1 [Zalcitabine] | 95.4 | 86.4 | 79.3 | -5.5 | -96.7 |  |  |  | 
CCN(C(C)=O)c1cccc(-c2ccnc3c(C#N)cnn23)c1 [Zaleplon] | 87.8 | 86.8 | 86.1 |  |  |  |  |  | activation at 2 µM [1, 10]: 12.3%; activation at 10 µM [1, 11]: -15.8%
COc1cc(-c2ccc(=O)[nH]n2)ccc1OC(F)F [Zardaverine] |  |  |  | 4.1 | -36.7 | 86.5 | 93.5 | 67.4 | 
C[C@H]1CCC[C@H](O)CCCCCc2cc(O)cc(O)c2C(=O)O1 [Zeranol] |  |  |  | -37.2 | -51.9 | 83.6 | 85.8 | 69.3 | 
Cc1cn([C@H]2C[C@H](N=[N+]=[N-])[C@@H](CO)O2)c(=O)[nH]c1=O [Zidovudine] |  |  |  |  |  |  |  |  | activation at 2 µM [1, 18]: -29.4%; activation at 10 µM [1, 19]: -41.2%; 0.1 µM (% DMSO) (expanded OPCs; [7]): 89.6 % DMSO; 1 µM (% DMSO) (expanded OPCs; [8]): 85.7 % DMSO; 10 µM (% DMSO) (expanded OPCs; [9]): 83.9 % DMSO
CC(c1cc2ccccc2s1)N(O)C(N)=O (centres unmarked) [Zileuton] |  |  |  | -2.6 | -52.1 | 104 | 89.4 | 77.4 | 
CN(C)CCc1c[nH]c2ccc(C[C@H]3COC(=O)N3)cc12 [Zolmitriptan] | 85.9 | 89.9 | 95.5 |  |  |  |  |  | activation at 2 µM [1, 10]: 4.1%; activation at 10 µM [1, 11]: 4.7%
Cc1ccc(-c2nc3ccc(C)cn3c2CC(=O)N(C)C)cc1 [Zolpidem] |  |  |  | -14 | -2.7 | 86.9 | 90.8 | 93.5 | 
NS(=O)(=O)Cc1noc2ccccc12 [Zonisamide] |  |  |  |  |  |  |  |  | activation at 2 µM [1, 18]: 5.9%; activation at 10 µM [1, 19]: 4.3%; 0.1 µM (% DMSO) (expanded OPCs; [7]): 89.3 % DMSO; 1 µM (% DMSO) (expanded OPCs; [8]): 92.8 % DMSO; 10 µM (% DMSO) (expanded OPCs; [9]): 87.8 % DMSO
COc1cc(CNC(=O)CCCC/C=C\C(C)C)ccc1O [Zucapsaicin] |  |  |  | -17 |  | 85.6 | 72 | 36.9 | activation at 0.4 µM [1, 17]: 13.2%
N#Cc1ccc(C(c2ccc(C#N)cc2)n2cncn2)cc1 [letrozole] |  |  |  | 1.2 | -4.8 | 92 | 99.2 | 101 | 
CC(=O)NC[C@H]1CN(c2ccc(N3CCOCC3)c(F)c2)C(=O)O1 [linezolid] | 95.7 | 94.1 | 94.7 | 4.3 | 7.1 |  |  |  | 
CC(Oc1c(Cl)cccc1Cl)C1=NCCN1 (centres unmarked) [lofexidine] | 88.5 | 96 | 80.6 |  |  |  |  |  | activation at 2 µM [1, 10]: 9.5%; activation at 10 µM [1, 11]: 13.1%
CC(C(=O)O)c1ccc(CC2CCCC2=O)cc1 (centres unmarked) [loxoprofen] | 99.8 | 92.5 | 87.6 | 3.1 | 10.9 |  |  |  | 
NC(Cc1cc(I)c(Oc2cc(I)c(O)c(I)c2)c(I)c1)C(=O)O (centres unmarked) [thyroxine, reference compound] |  |  |  |  |  |  |  |  | promotion of OL differentiation (in words) ([1]; MBP expression versus 0.1 % DMSO negative control): able to promote OL differentiation at one or both concentrations tested; activation at 2 µM [1, 10]: -26.7%; activation at 10 µM [1, 11]: -186%; 0.1 µM (% DMSO) (expanded OPCs; [7]): 212.0 % DMSO; 1 µM (% DMSO) (expanded OPCs; [8]): 190.0 % DMSO; 10 µM (% DMSO) (expanded OPCs; [9]): 120.0 % DMSO
HTMT |  |  |  |  |  |  |  |  | 2 uM (% Quet) [1, 20]: -16.4 % Quet; 10 uM (% Quet) [1, 21]: 21.8 % Quet; 0.1 µM (% DMSO) (expanded OPCs; [22]): 71.6 % DMSO; 1 µM (% DMSO) (expanded OPCs; [23]): 71.0 % DMSO; 10 µM (% DMSO) (expanded OPCs; [24]): 63.6 % DMSO
Methanesulfonamide |  |  |  |  |  |  |  |  | 2 uM (% Quet) [1, 20]: -6.5 % Quet; 10 uM (% Quet) [1, 21]: 5.8 % Quet; 0.1 µM (% DMSO) (expanded OPCs; [22]): 118.1 % DMSO; 1 µM (% DMSO) (expanded OPCs; [23]): 132.7 % DMSO; 10 µM (% DMSO) (expanded OPCs; [24]): 132.9 % DMSO

Reference: publication PMC5011342, “A high throughput drug screening assay to identify compounds that promote oligodendrocyte differentiation using acutely dissociated and purified oligodendrocyte precursor cells” (BMC Research Notes, 2016)
